# Target: Egl nine homolog 1 (Homo sapiens, UniProt Q9GZT9)
# Assay: Inhibition of human PHD2 catalytic domain (181-426) by FRET assay
# Chain of Egl nine homolog 1 (Q9GZT9 whole entry, the tested form may be a part): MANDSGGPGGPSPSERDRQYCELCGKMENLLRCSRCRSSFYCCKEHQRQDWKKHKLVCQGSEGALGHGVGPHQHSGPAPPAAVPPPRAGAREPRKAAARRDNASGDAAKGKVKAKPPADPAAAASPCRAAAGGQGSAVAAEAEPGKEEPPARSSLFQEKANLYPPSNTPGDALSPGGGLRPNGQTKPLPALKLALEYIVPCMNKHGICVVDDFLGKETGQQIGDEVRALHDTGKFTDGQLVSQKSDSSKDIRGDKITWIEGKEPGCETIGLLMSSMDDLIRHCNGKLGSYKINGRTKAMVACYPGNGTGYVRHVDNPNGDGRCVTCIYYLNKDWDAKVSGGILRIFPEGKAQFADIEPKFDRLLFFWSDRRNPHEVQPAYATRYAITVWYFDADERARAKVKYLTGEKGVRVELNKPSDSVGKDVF
row,SMILES,IC50 [µM]
1,O=C(O)CNC(=O)CC(=O)c1ccccc1,> 1000
2,O=C(O)CCC(=O)NO,94
3,O=C(O)CNC(=O)CC(=O)O,398
4,O=C(O)CNC(=O)NO,> 1000
5,CCNC(=O)C(=O)NCC(=O)O,> 1000
6,COC(=O)C(=O)NCC(=O)O,95
7,O=C(O)CN1CCNC(=O)C1=O,> 1000
8,COC(=O)CNC(=O)C(=O)O,> 1000
9,CC(=O)CC(=O)CCC(=O)O [SUCCINYLACETONE],18
10,CCNC(=O)C(=O)CCC(=O)O,> 1000

# The remaining lines, values ahead:
row,IC50 [µM],SMILES
1,78,CCOC(=O)C(=O)NCC(=O)O
2,538,O=C(O)CNC(=O)C(=O)C(=O)c1ccccc1
3,> 1000,CCOC(=O)CC(=O)NCC(=O)O
4,> 1000,CC(=O)CC(=O)NCC(=O)O
5,> 1000,O=C(O)CNC(=O)C(=O)NCc1ccccc1
